Test results as given in article doi:10.1101/2022.11.21.517375v1, “Fragment-Based Hit Discovery via Unsupervised Learning of Fragment-Protein Complexes” (biorxiv, 2022).
Read-outs that look alike come from different tables or passages of the source.

Assays:
[1] = target: T1, Mac1 (P43 crystals) (Severe acute respiratory syndrome coronavirus 2, UniProt P0DTD1); test: X-ray crystallography, crystal soaking, PanDDA; type: binding; conditions: active site; P43 crystals soaked at 10 or 20 mM for 2-[…]
T1 construct: gene rep

[2] = target: T2, SARS-CoV-2 nsp3-Mac1 (HTRF assay) (Severe acute respiratory syndrome coronavirus 2, UniProt P0DTD1); test: HTRF displacement of ADP-ribose-conjugated biotin peptide; type: binding
T2 construct: gene rep

[3] = target: T3, SARS-CoV-2 main protease (Mpro) (Severe acute respiratory syndrome coronavirus 2, UniProt P0DTD1); test: fluorescence protease assay, fluorogenic peptide, dose response; type: biochemical
T3 construct: gene rep

For `CC[C@@H](CNc1ncnc2[nH]cnc12)NC(=O)CCC1CCCCC1` [Z5551425673 (S-stereoisomer)], the “X-ray crystallography, crystal soaking, PanDDA” value [1] was “structure of Z5551425673 (as the S-stereoisomer) bound to the active site”.
For `CCNc1nc2c(cnn2C)c(=O)[nH]1` [Z1102995175], the “% inhibition at 250 μM” value ([2]; pH 7.0, 25 mM HEPES, 20 mM NaCl, […] protein, 400 nM peptide, room temperature) was 24.8%.
Work on `CCC(CNc1ncnc2[nH]cnc12)NC(=O)CCC1CCCCC1` (racemic) [Z5551425673] yielded an inhibition at 250 µM ([2]; read-out: % inhibition at 250 μM) of 30.1%.
For `COc1ccc2c(C(=O)NNc3nc4ccccc4[nH]3)cc(=O)[nH]c2c1` [ALP-UNI-ed5cdfd2-1], the IC50 [3] was 19.4 µM.
`O=C(NNc1nc2ccccc2[nH]1)c1cc(=O)[nH]c2ccccc12` [WIL-UNI-d4749f31-37] showed an IC50 ([3]; pH 7.3, 20 mM HEPES, 1.0 mM TCEP, 50 mM NaCl, 5 nM Mpro, 37 nM substrate, 15 min pre-incubation, room temperature, read-out: IC50) of 25.8 µM.
